Assay [1] concerns Kunming mice with CFA-induced inflammation. The assay can be described thus: Von Frey test (50% paw withdrawal threshold) in CFA-induced inflammatory pain mouse model. It counts as in vivo. The method, then: 10 μL of complete Freund's adjuvant (CFA) was injected into the left hind foot of mice (♂ Kunming mice, 22 g to 40 g) to induce inflammation. 24 hours after the injection, a Von Frey test was performed to determine a pain threshold. That is, under the guidance of Dixon's Up-Down method, Von Frey fibers were used to induce the mechanical paw withdrawal of the mice, and data were collected and calculated to obtain their 50% paw withdrawal thresholds (paw withdrawal threshold or PWT for short, i.e. pain threshold). Mice were then divided into different groups, including a normal saline group, a positive control group, and a drug group, which were intraperitoneally injected with normal saline, an aspirin (acetylsalicylic acid, or ASA) solution and a solution of compound for testing respectively. A Von Frey test was then performed to monitor changes in pain threshold.
Mice were divided into three groups: a blank control group, an aspirin (ASA) group, and a drug group. In blank control group, the mice were given normal saline, deionized water or deionized water containing ≤5% DMSO at the same volume as that in the drug group. In ASA group, the mice were given the known analgesic drug ASA as the positive control for tested compounds. In drug group, the mice were given compounds for testing accordingly. Due attention was paid to observe whether the pain threshold rose, the period during which the rise was maintained and the magnitude of the rise, after the injection of a tested compound solution.

Assay [2] shares this test system. The description is as above. It counts as in vivo. Conditions: Example 10; G1 injected through the tail vein 0.49 mg/kg (atomic mass of vanadium); ASA group as control.
The test system is the same in assay [3]. The assay is described as follows: Effective concentration and plateau experiment of vanadium compounds, tail vein injection, mouse pain model. The format is in vivo. Conditions: for Duration / Maximum analgesic intensity (mean): Plateau experiment, dose (vanadium) A5/G3 0.25, A1/G1/H1 0.49, A4/G2/H2 0.97, H3 1.9 mg/kg, 6 samples; for Blood concentration in mice equivalent to the plateau dose: plateau dose 0.49 mg/kg.

For assay [4], the system named is mice that suffered from pain due to induced inflammation. Conditions: intrathecal injection, inflammatory pain; cited from earlier work.
[5] abbreviates: Example 3, intraperitoneal injection, A1 0.97 mg/kg (atomic mass of vanadium), S about 250 mg/kg.
[6] abbreviates: Example 5, intraperitoneal injection, C 1.9 mg/kg (atomic mass of vanadium), S about 250 mg/kg.
Setting [7] is: Example 6, intraperitoneal injection, D 1.9 mg/kg, S about 250 mg/kg.
Setting [8] is: Example 7, intraperitoneal injection, B 0.97 mg/kg (atomic mass of vanadium), S about 250 mg/kg.
[9] abbreviates: Example 8, intraperitoneal injection, E 0.97 mg/kg (atomic mass of vanadium), ASA about 250 mg/kg.
[10] abbreviates: Example 9, intraperitoneal injection, F 0.97 mg/kg (atomic mass of vanadium), ASA about 250 mg/kg.
The mark [11] stands for this setting: Example 11 (BEOV), intraperitoneal injection, I about 0.97 mg/kg (atomic mass of vanadium).
[12] abbreviates: Example 11 (BMOV), intraperitoneal injection, H1 about 0.97 mg/kg (atomic mass of vanadium).
Setting [13] is: Example 12, intraperitoneal injection, J about 0.97 mg/kg (atomic mass of vanadium).
Setting [14] is: Example 13, intraperitoneal injection, K about 0.97 mg/kg (atomic mass of vanadium).
Where [15] appears, read: Example 14, intraperitoneal injection, L about 0.97 mg/kg (atomic mass of vanadium).
Where [16] appears, read: Example 15, intraperitoneal injection, M about 0.97 mg/kg (atomic mass of vanadium).
The mark [17] stands for this setting: Example 16, intraperitoneal injection, N about 0.97 mg/kg (atomic mass of vanadium).
Where [18] appears, read: Example 17, intraperitoneal injection, O about 0.97 mg/kg (atomic mass of vanadium).
[19] abbreviates: Example 18, intraperitoneal injection, P about 0.97 mg/kg (atomic mass of vanadium).
The mark [20] stands for this setting: Example 19, intraperitoneal injection, Q about 0.97 mg/kg (atomic mass of vanadium).
Where [21] appears, read: Example 20, intraperitoneal injection, R about 0.97 mg/kg (atomic mass of vanadium).
Setting [22] is: intraperitoneal injection, doses as in Examples 3-9.

“Also recorded” adds a separate entry of the source.

For `CC(=O)Oc1ccccc1C(=O)O` [Solution S, acetylsalicylic acid, reference compound], the Duration in assay [1] (setting [5]) was less than 45 min; in assay [1] (setting [6]) it was less than 45 min; in assay [1] (Example 5, intraperitoneal injection, C 1.9 mg/kg (atomic mass of vanadium), S about 250 mg/kg, listed as ASA), less than 45 min; in assay [1] (setting [7]) it was less than 45 min; in assay [1] (Example 6, intraperitoneal injection, D 1.9 mg/kg, S about 250 mg/kg, listed as ASA) it was less than 45 min; in assay [1] (setting [8]) it was less than 45 min. Also, the Duration in assay [1] (Example 7, intraperitoneal injection, B 0.97 mg/kg (atomic mass of vanadium), S about 250 mg/kg, listed as ASA) was less than 45 min; in assay [1] (setting [9]), less than 45 min; in assay [1] (Example 8, intraperitoneal injection, E 0.97 mg/kg (atomic mass of vanadium), ASA about 250 mg/kg, listed as ASA) it was less than 45 min; in assay [1] (setting [10]), less than 45 min; in assay [1] (Example 9, intraperitoneal injection, F 0.97 mg/kg (atomic mass of vanadium), ASA about 250 mg/kg, listed as ASA) it was less than 45 min; in assay [1] (setting [11]) it was less than 45 min. In addition, the Duration in assay [1] (setting [12]), in assay [1] (setting [13]), in assay [1] (setting [14]), in assay [1] (setting [15]), in assay [1] (setting [16]) and in assay [1] (setting [17]) was less than 45 min throughout. Further, the Duration in assay [1] (setting [18]), in assay [1] (setting [19]), in assay [1] (setting [20]), in assay [1] (setting [21]) and in assay [2] was less than 45 min in each case. Moreover, the Onset time in assay [1] (setting [5]), in assay [1] (setting [6]), in assay [1] (setting [7]), in assay [1] (setting [8]), in assay [1] (setting [9]) and in assay [1] (setting [10]) was 15 to 30 after injection min in each case. Besides, the Onset time in assay [1] (setting [11]) is 15 to 30 after injection min; in assay [1] (setting [12]), 0 to 15 after injection min; in assay [1] (setting [13]), 15 to 30 after injection min; in assay [1] (setting [14]), 0 to 15 after injection min; in assay [1] (setting [15]) it was 15 to 30 after injection min; in assay [1] (setting [16]), 15 to 30 after injection min. Moreover, the Onset time in assay [1] (setting [17]) is 15 to 30 after injection min; in assay [1] (setting [18]) it was 15 to 30 after injection min; in assay [1] (setting [19]) it was 15 to 30 after injection min; in assay [1] (setting [20]), 15 to 30 after injection min; in assay [1] (setting [21]), 15 to 30 after injection min; in assay [2], 0 to 15 after injection min. Besides, the “Time after injection at which the pain threshold returned to the baseline value” in assay [1] (setting [22]) is reported as “about 60 minutes”.
`Cc1occc(=O)c1[O-].Cc1occc(=O)c1[O-].[O]=[V+2]` [Solution H3, bis(maltolato)oxovanadium (IV)]: in assay [3] (1.9 mg/kg), the Duration is listed as not above 60 min and the “Maximum analgesic intensity (mean)” value came out at 0.48 g.
For the compound `[Na+].[Na+].[Na+].[O]=[V]([O-])([O-])[O-]` [Solution A, Sodium orthovanadate], the Minimum effective dose entry in assay [3] (mice) is listed as “about 1.0×10^−3 mg/kg”. The “Blood concentration in mice equivalent to the plateau dose” value in assay [3] is 140 µM. Further, the Analgesic effect result in assay [4] was “found the analgesic effect”; in assay [1] (mouse, in vivo, ip), “have an analgesic effect”. Further, the “Effective duration compared with aspirin (ASA)” value in assay [1] (mouse, in vivo, ip) is “significantly longer duration of action than that of ASA; also recorded: longer than that of aspirin”.
In the case of `Cc1occc(=O)c1[O-].Cc1occc(=O)c1[O-].[O]=[V+2]` [Solution H1, bis(maltolato)oxovanadium (IV)], in assay [3] (listed as H1), the Duration is given as not above 60 min and the “Maximum analgesic intensity (mean)” value was 0.33 g. Also, in assay [1] (setting [12]), the Duration is more than 60 min and the Onset time fell in the range of 0 to 15 after injection min.
`Cc1occc(=O)c1[O-].Cc1occc(=O)c1[O-].[O]=[V+2]` [Solution H2, bis(maltolato)oxovanadium (IV)]: in assay [3] (listed as H2), the Duration is more than 60 min and the “Maximum analgesic intensity (mean)” value is reported as 0.54 g.
Take `O=S(=O)([O-])[O-].[O]=[V+2]` [Solution G1, Vanadyl sulfate]: in assay [3] (listed as G1), the Duration is on record as more than 60 min and the “Maximum analgesic intensity (mean)” value is recorded as approximately 0.49 g. In assay [2], this compound had a Duration of more than 60 min and an Onset time of 0 to 15 after injection min.
With `[Na+].[Na+].[Na+].[O]=[V]([O-])([O-])[O-]` [Solution A1, Sodium orthovanadate], the Duration in assay [3] (listed as A1) is on record as more than 60 min; in assay [1] (setting [5]), more than 60 min; in assay [1] (Example 4, intraperitoneal injection, A1 0.97, A2 0.19, A3 0.097 mg/kg (atomic mass of vanadium)), more than 60 min. Also, the “Maximum analgesic intensity (mean)” value in assay [3] (listed as A1) is approximately 0.55 g. Moreover, the Onset time is 30 to 45 after injection min in assay [1] (setting [5]) and 30 to 45 after injection min in assay [1] (Example 4, intraperitoneal injection, A1 0.97, A2 0.19, A3 0.097 mg/kg (atomic mass of vanadium), listed as A1). The “Time after injection at which the pain threshold returned to the baseline value” in assay [1] (setting [22]) is more than 90 min. Also, the “Pain thresholds / analgesic intensity compared with the S (ASA, aspirin) group” value in assay [1] (intraperitoneal injection, doses as in Examples 3-9, most of the time after onset) is on record as “generally higher than those of the mice in the S group”.
For the compound `Cc1occc(=O)c1[O-].Cc1occc(=O)c1[O-].[O]=[V+2]` [Solution H, bis(maltolato)oxovanadium (IV)], the Plateau dose in assay [3] (mice, based on vanadium) is not below 0.97 mg/kg.
On to `O=S(=O)([O-])[O-].[O]=[V+2]` [Solution G, Vanadyl sulfate], for which, in assay [3] (mice), the Minimum effective dose result is recorded as “about 1.0×10^−3 mg/kg”. The “Blood concentration in mice equivalent to the plateau dose” value in assay [3] came out at 140 µM.
Regarding `O=S(=O)([O-])[O-].[O]=[V+2]` [Solution G3, Vanadyl sulfate], in assay [3] (listed as G3), the Duration was more than 60 min and the “Maximum analgesic intensity (mean)” value is reported as approximately 0.46 g.

(Values after patent publication US20240066057A1, “METHOD FOR TREATING PAIN USING VANADIUM COMPOUNDS” (HUNAN FANGSHENGTAI MEDICAL TECHNOLOGY CO., LTD, priority 2020, published 2024).)
